Consider one molecule from ChEMBL document CHEMBL5696441 (Nat Chem Biol, 2011).

Data set [1] has as its target Calcium/calmodulin-dependent protein kinase type 1D (Homo sapiens) (UniProt Q8IU85). Briefly: Inhibition of CAMK1D (unknown origin) assessed as remaining activity at 1 uM by Kinome scan method relative to control.
Data set [2] has as its target Calcium/calmodulin-dependent protein kinase type II subunit gamma (Homo sapiens) (UniProt Q13555). In words: Inhibition of CAMK2G (unknown origin) assessed as remaining activity at 1 uM by Kinome scan method relative to control.
Data set [3] deals with Serine/threonine-protein kinase Nek9 (Homo sapiens) (UniProt Q8TD19). In words: Inhibition of NEK9 (unknown origin) assessed as remaining activity at 1 uM by Kinome scan method relative to control.
Chain of Serine/threonine-protein kinase Nek9 (Homo sapiens) (Q8TD19 whole entry, canonical isoform): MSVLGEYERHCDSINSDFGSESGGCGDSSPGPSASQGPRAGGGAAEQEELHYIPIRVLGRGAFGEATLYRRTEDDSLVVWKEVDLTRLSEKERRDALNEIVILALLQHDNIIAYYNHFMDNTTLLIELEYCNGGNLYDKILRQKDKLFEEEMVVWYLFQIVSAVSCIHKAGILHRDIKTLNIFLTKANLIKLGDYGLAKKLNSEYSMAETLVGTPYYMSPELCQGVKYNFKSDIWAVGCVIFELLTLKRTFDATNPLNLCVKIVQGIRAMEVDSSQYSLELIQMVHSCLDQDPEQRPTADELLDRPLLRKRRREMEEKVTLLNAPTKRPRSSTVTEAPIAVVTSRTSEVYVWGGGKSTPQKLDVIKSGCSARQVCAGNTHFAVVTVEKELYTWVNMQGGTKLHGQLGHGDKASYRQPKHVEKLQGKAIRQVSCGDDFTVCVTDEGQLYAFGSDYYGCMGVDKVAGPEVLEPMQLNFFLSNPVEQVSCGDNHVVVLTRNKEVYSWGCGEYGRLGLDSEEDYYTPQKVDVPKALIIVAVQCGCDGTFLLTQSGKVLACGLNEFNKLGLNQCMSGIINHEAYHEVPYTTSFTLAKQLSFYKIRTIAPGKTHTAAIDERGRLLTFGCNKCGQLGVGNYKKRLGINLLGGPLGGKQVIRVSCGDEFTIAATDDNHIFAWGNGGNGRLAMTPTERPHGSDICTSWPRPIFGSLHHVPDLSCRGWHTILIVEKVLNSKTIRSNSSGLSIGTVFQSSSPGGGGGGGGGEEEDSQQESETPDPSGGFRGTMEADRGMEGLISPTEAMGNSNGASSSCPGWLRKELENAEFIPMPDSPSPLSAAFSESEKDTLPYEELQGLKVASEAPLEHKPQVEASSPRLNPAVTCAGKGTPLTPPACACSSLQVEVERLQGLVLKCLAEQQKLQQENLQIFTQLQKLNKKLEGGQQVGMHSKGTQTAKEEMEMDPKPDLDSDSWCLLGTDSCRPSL
Data set [4] has as its system Phosphatidylinositol 4,5-bisphosphate 3-kinase catalytic subunit alpha isoform (Homo sapiens), P42336 [E545K]. Briefly: Inhibition of PIK3CA E545K mutant (unknown origin) assessed as remaining activity at 1 uM by Kinome scan method relative to control.
Data set [5] deals with Activated CDC42 kinase 1 (Homo sapiens) (UniProt Q07912). Briefly: Inhibition of human ACK1 assessed as residual activity at 1 uM using PolyEY as substrate in presence of 33P-ATP by ProQinase assay relative to control.
The target of data set [6] is T1, Aurora kinase A (Homo sapiens) (UniProt O14965).
T1 sequence (whole entry): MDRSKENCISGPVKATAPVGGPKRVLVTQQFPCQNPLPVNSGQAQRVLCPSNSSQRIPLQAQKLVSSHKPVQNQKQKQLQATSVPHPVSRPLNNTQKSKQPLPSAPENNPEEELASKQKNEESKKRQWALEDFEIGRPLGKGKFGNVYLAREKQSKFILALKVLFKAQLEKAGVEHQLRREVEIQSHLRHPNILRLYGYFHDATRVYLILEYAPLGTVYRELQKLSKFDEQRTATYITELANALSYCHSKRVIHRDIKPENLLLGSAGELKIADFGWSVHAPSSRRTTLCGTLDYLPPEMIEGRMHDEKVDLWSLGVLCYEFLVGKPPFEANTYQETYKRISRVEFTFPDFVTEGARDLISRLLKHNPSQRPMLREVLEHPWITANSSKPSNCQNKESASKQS
Briefly: Inhibition of human AuroraA assessed as residual activity at 1 uM using bio-4xCHKT as substrate in presence of 33P-ATP by ProQinase assay relative to control.

Data set [7] deals with T2, Serine/threonine-protein kinase Chk1 (Homo sapiens) (UniProt O14757).
T2 sequence (whole entry): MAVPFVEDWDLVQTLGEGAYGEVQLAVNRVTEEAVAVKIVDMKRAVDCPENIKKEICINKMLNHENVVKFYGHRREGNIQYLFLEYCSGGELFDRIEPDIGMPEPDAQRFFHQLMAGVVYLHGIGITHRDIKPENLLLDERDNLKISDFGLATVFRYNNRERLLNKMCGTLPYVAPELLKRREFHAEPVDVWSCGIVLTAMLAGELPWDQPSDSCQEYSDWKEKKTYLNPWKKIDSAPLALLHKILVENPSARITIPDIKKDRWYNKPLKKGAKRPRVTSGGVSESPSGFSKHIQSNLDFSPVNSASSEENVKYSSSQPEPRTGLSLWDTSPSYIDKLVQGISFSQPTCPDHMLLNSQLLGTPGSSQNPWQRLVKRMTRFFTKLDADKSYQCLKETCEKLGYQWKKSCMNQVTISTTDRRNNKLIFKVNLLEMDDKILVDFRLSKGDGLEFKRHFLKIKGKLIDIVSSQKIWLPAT
Briefly: Inhibition of human CHK1 assessed as residual activity at 1 uM using RBER-CHKtide as substrate in presence of 33P-ATP by ProQinase assay relative to control.

Data set [8] deals with Macrophage colony-stimulating factor 1 receptor (Homo sapiens) (UniProt P07333). Briefly: Inhibition of human CSF1R assessed as residual activity at 1 uM using polyEY as substrate in presence of 33P-ATP by ProQinase assay relative to control.
Data set [9] concerns the target Mitogen-activated protein kinase 3 (Homo sapiens) (UniProt P27361). In words: Inhibition of human ERK1 assessed as residual activity at 1 uM using RBER-CHKtide as substrate in presence of 33P-ATP by ProQinase assay relative to control.
The target in data set [10] is Mitogen-activated protein kinase 1 (Homo sapiens) (UniProt P28482). Briefly: Inhibition of human ERK2 assessed as residual activity at 1 uM using RBER-CHKtide as substrate in presence of 33P-ATP by ProQinase assay relative to control.
Data set [11] has as its target Mast/stem cell growth factor receptor Kit (Homo sapiens) (UniProt P10721). In words: Inhibition of human KIT assessed as residual activity at 1 uM using polyEY as substrate in presence of 33P-ATP by ProQinase assay relative to control.
The target in data set [12] is LIM domain kinase 1 (Homo sapiens) (UniProt P53667). In words: Inhibition of human LIMK1 assessed as residual activity at 1 uM using CFL2 as substrate in presence of 33P-ATP by ProQinase assay relative to control.
Data set [13] concerns the target Serine/threonine-protein kinase N1 (Homo sapiens) (UniProt Q16512). In words: Inhibition of human PRK1 assessed as residual activity at 1 uM using RBER-CHKtide as substrate in presence of 33P-ATP by ProQinase assay relative to control.
Data set [14] deals with Receptor-interacting serine/threonine-protein kinase 2 (Homo sapiens) (UniProt O43353). Briefly: Inhibition of human RIPK2 assessed as residual activity at 1 uM using RBER-CHKtide as substrate in presence of 33P-ATP by ProQinase assay relative to control.
For data set [15], the target named is Vascular endothelial growth factor receptor 3 (Homo sapiens) (UniProt P35916). In words: Inhibition of human VEGFR3 assessed as residual activity at 1 uM using polyEY as substrate in presence of 33P-ATP by ProQinase assay relative to control.
The target of data set [16] is Wee1-like protein kinase (Homo sapiens) (UniProt P30291). In words: Inhibition of human WEE1 assessed as residual activity at 1 uM using poly(Ala,Glu,Lys,Tyr)6:2:5:1 as substrate in presence of 33P-ATP by ProQinase assay relative to control.
The nature of data set [17]: Anti-inflammatory activity against human derived medium respond PBMC cells assessed as inhibition in stimulated IL-1ra cytokine release incubated for 2 hrs in the presence of LPS/SEB/aCD28 by Luminex based sandwich immunoassay. In kind it is functional, cell-based.
Another data set addresses CYP3A4 (Homo sapiens, UniProt P08684). In words: Inhibition of CYP3A4 (unknown origin) at 10 uM relative to control. In kind it is ADME.

Chain of Serine/threonine-protein kinase N1 (Homo sapiens) (Q16512 2-942 limits assumed): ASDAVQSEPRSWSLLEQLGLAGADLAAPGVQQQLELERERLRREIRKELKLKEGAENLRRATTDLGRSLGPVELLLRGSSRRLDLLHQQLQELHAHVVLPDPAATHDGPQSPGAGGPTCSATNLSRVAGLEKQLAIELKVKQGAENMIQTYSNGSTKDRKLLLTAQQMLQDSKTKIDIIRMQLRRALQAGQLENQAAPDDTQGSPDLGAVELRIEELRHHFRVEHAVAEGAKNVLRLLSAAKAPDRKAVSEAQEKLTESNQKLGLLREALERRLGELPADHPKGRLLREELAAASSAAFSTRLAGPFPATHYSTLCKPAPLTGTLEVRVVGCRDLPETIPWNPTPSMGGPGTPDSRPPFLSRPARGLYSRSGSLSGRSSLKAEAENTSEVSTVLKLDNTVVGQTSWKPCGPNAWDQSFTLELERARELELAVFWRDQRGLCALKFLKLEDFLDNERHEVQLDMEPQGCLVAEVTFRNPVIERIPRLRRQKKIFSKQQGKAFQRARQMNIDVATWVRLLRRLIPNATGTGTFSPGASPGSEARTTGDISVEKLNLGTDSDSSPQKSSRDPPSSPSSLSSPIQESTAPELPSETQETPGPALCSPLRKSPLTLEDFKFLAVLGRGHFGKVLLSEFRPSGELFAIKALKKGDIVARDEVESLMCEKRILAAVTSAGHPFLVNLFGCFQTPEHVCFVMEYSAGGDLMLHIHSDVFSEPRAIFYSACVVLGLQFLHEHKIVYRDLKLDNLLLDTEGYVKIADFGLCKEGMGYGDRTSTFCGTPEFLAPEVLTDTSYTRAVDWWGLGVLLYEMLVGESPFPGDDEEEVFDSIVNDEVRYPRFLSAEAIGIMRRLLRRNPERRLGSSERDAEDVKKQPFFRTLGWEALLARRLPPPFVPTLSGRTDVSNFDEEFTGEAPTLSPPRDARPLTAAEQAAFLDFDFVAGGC
Chain of Mitogen-activated protein kinase 3 (Homo sapiens) (P27361 whole entry): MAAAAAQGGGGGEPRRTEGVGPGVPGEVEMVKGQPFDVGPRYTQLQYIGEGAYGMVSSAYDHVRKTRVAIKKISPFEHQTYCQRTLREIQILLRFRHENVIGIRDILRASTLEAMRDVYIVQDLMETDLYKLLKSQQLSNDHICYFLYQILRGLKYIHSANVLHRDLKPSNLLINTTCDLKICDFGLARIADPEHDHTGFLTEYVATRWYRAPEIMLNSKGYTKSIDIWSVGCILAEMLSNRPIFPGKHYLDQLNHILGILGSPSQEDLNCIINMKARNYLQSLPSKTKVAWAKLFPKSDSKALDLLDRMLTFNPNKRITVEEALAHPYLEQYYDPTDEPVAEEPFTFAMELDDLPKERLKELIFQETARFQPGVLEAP
Chain of Phosphatidylinositol 4,5-bisphosphate 3-kinase catalytic subunit alpha isoform (Homo sapiens), P42336 [E545K] (P42336 whole entry E545K, canonical isoform): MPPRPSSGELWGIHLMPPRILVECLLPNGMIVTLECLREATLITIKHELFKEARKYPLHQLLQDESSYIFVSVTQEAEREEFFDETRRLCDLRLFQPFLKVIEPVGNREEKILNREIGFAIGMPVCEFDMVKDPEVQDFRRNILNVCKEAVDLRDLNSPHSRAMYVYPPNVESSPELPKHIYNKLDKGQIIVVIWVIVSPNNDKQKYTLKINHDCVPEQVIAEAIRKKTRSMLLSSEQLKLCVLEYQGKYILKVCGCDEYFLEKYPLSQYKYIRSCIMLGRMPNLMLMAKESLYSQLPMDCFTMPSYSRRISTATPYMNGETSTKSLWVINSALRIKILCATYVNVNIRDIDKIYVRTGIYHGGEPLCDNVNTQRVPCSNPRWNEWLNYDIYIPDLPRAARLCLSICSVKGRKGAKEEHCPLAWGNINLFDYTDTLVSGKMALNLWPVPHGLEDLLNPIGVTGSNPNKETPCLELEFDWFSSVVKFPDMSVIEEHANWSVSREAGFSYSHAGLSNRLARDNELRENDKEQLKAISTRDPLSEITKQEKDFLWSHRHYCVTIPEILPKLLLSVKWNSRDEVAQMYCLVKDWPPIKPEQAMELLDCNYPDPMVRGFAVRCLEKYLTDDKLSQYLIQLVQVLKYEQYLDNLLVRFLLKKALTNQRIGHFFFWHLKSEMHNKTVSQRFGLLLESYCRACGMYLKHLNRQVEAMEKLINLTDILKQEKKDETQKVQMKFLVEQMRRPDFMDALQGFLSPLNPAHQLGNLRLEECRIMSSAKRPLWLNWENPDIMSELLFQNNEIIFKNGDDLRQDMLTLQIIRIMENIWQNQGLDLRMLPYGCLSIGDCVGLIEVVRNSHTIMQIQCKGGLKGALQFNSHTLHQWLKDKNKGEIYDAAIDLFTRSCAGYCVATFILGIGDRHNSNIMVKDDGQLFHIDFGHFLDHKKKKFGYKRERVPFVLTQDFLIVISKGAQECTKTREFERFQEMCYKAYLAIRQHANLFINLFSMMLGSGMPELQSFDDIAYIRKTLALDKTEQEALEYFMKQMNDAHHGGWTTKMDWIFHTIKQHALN
Chain of Mast/stem cell growth factor receptor Kit (Homo sapiens) (P10721 whole entry, the tested form may be a part): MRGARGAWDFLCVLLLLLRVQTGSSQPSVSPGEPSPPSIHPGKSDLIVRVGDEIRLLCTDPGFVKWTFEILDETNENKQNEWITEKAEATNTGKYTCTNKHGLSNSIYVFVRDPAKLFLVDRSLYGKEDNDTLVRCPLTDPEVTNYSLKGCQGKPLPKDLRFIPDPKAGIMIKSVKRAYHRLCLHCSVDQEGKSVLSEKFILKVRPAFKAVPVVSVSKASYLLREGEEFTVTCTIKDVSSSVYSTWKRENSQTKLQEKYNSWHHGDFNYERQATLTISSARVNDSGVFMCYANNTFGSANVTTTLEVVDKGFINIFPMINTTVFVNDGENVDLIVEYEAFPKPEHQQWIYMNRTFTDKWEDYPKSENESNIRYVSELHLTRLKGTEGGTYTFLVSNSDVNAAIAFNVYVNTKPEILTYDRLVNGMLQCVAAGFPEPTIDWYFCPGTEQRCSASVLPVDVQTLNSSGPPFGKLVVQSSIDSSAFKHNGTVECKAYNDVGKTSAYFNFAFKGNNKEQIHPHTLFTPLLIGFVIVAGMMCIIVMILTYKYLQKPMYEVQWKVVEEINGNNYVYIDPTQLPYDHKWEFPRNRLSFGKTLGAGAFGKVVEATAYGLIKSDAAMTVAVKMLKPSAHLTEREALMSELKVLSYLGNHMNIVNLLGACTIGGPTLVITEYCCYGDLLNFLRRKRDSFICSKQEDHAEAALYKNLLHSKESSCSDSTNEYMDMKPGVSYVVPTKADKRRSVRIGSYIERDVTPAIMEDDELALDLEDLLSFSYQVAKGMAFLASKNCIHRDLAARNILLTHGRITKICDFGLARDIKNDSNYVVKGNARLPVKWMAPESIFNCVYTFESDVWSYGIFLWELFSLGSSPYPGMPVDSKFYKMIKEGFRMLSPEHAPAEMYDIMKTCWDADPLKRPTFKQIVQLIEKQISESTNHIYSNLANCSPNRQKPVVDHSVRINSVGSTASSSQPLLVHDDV
Chain of CYP3A4 (P08684 whole entry): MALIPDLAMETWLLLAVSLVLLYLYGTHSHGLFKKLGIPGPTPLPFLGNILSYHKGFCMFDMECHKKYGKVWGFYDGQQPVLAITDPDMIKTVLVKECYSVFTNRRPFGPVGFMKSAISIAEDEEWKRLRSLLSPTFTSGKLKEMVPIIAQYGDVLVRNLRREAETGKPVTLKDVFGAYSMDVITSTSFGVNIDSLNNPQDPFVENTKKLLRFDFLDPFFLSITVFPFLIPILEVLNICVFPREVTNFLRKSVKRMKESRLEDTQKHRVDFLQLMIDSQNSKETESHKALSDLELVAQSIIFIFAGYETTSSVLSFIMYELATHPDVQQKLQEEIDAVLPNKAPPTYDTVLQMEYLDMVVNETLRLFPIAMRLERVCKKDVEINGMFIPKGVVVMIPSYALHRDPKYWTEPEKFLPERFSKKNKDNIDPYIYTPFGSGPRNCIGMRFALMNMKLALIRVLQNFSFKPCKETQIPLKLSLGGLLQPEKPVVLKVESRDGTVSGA

With `O=C1c2ccc(Nc3ccc(F)cc3F)cc2CCc2ccc(OC[C@H](O)CO)cc21` [Skepinone-L], the Activity in [1] came to 99%; in data set [2], 100%; in [3] it was 89%; in data set [4] it was 100%; in data set [5], 108%; in data set [6], 99%. Besides, the Activity in data set [7] is 94%; in data set [8] it was 106%; in data set [9] it was 99%; in data set [10], 83%; in data set [11] it was 111%; in data set [12] it was 109%. Further, the Activity came to 92% in data set [13], 77% in [14], 100% in data set [15] and 88% in data set [16]. The IC50 in [17] came to 870 nM. Moreover, the inhibition at 10 µM at CYP3A4 was determined as 34%.
